The test system of test [1] is Ghrelin. The experiment in a line: Plasma ghrelin (ELISA) after acute oral gavage in fasted rats. The following applies: oral 500 mg/kg, adult male Wistar rats, FIG. 3A / FIG. 4. The class given is in vivo. As for the experimental part: The protocol was approved by the Ethics Committee for Animal Experiments of the University of Malaga.
D-Pinitol (3-0-methyl-D-chiro-inositol) was generously provided by EURONUTRA SL (https://www.euronutra.com/, Malaga, Spain), in the form of crystalline fine powder (lot: PPN-M0201). For acute treatments, D-Pinitol was dissolved in water to be administered by gavage (orally) at different concentrations (100 mg/Kg and 500 mg/Kg), drug was administered at a volume of 1 ml/kg.
After 18 hours of fasting, D-Pinitol dissolved in water was administered acutely by gavage (100 mg/kg in a first study, and 500 mg/kg in a subsequent study). After administration, the animals were sacrificed in groups at different times (being time 0 the administration of D-Pinitol). For the first study (100 mg/kg), groups of animals were sacrificed at times: 10, 20, 30, 60, 120, 240 and 360 minutes after administration; for the second study (500 mg/kg), animals were sacrificed at times: 60, 120 and 240 minutes after administration. As a control group, a group was administered only with water (by gavage).
Animals were anesthetized with sodium pentobarbital (50 mg/Kg, i.p.), blood, brain and liver samples were collected. Blood was centrifuged (2100 g for 8 min, 4° C.) and the plasma kept for further analysis. Liver and brain samples were flash-frozen in liquid N2, then stored at −80° C. until further analysis.
The plasma levels of insulin and ghrelin were determined with an enzyme-linked immunosorbent assay (ELISA) method using commercial kits: EMD Millipore Corporation (Billerica, Mass., USA) Cat. #EZRMI-13K and Cat. #EZRGRT-91K, respectively. Glucagon levels in plasma was determined with a Glucagon Enzyme Immunoassay (EIA) Kit: Cat. #RAB0202 Sigma-Aldrich (Saint Louis, Mo., USA). All serum samples were assayed in duplicate within one assay, and results were expressed in terms of the particular standard hormone.

For test [2], the system named is tau protein. The experiment in a line: Hippocampal tau phosphorylation and total tau (western blot) after 10 days of oral drinking. Format: in vivo, Wistar rats. The note with it: oral by drinking 100 mg/Kg for 10 days, hippocampus. The method, then:
(§1) Animal experimental procedures were carried out in accordance with the European Communities directive 2010/63/EU and Spanish legislation (Real Decreto 53/2013). The protocol was approved by the Research and approved by Ethics Committee for Animal Experiments of the University of Malaga, Spain. In accordance with the ARRIVE guidelines, all efforts were made to minimize animal suffering and to reduce the number of animals used per experimental group. Chronic drinking experiments on Wistar rats were performed on 20 male rats. All adult rats, ageing 2 months (≈300 g of body weight), were provided by Charles River Laboratories (Barcelona, Spain). The animals were housed individually under a standard 12 h light-dark cycle in a room with temperature and humidity control. Water and rat chow pellets were provided ad libitum throughout the course of the present study.
(§2) Caromax®-D-Pinitol (3-O-methyl-d-chiro-inositol, DPIN, 98% purity) and Caromax®-D-Chiro-inositol (cis-1,2,3-trans-3,5,6-cyclohexanehexol, DCI) were provided by Euronutra SL (Málaga, Spain). They were dissolved in water to orally daily administration by drinking and/or gavage at dose of 100 mg/Kg of body weight (BW) in a 1 ml/kg of BW volume to Zucker and Wistar rats for 4 weeks (28 days) and 10 days, respectively (FIG. 1). During the drinking treatments, the concentration of inositols in the water were updated considering the daily increase of BW of the rats and the possible loss of water by evaporation.
(§3) Brain extract. Frozen brain samples (17 mg per sample) were homogenized in 1 mL of cold RIPA lysis buffer (50 mM Tris-HCl pH 7.4, 150 mM NaCl, 0.5% NaDOC, 1 mM EDTA, 1% Triton, 0.1% SDS, 1 mM Na3VO4, 1 mM NaF) supplemented with a protease cocktail (Hoffmann-Roche). The suspension was incubated for 2 hours at 4° C., followed by centrifugation at 12,000 rpm for 15 minutes at 4° C. The supernatant was transferred to a new clean centrifuge tube, and Bradford colorimetric method was used to determine the concentration of the total protein. The protein extracts were diluted 1:1 in loading buffer (DTT 2X) and heated for 5 minutes at 99° C. before being subjected to electrophoresis.
Western Blot Analysis. The tissue protein (10-15 μg) was subjected to electrophoresis on 4-12% Criterion XT Precast Bis-Tris gels (Bio-Rad, USA) for 30 minutes at 80V and 2 h at 150V. […] Bands were quantified by densitometric analysis using ImageJ software (Rasband, WS, ImageJ, US National Institutes of Health, Bethesda, Md., USA). […] The results were expressed as the protein/α-Adaptin ratio or phosphorylated/total protein ratio and normalized to the control group (Y axis represents ‘fold mean of the control values’).
All data are expressed as mean±SEM. […]
(In general: In western blotting, separated proteins are transferred to a membrane and probed.)

The test system of test [3] is glycogen synthase kinase-3β (GSK-3β). The experiment in a line: Hippocampal GSK-3β phosphorylation and total level (western blot) after 10 days of oral administration. The class given is in vivo, Wistar rats. The note with it: oral 100 mg/Kg for 10 days, hippocampus. The method, then:
as §1, §2, §3
Western Blot Analysis. The tissue protein (10-15 μg) was subjected to electrophoresis on 4-12% Criterion XT Precast Bis-Tris gels (Bio-Rad, USA) for 30 minutes at 80V and 2 h at 150V. Proteins were transferred onto a 0.2 μm nitrocellulose membrane (Bio-Rad, USA) for 1 h at 80V by wet transfer equipment. The membrane was washed twice for 5 min in TBST (10 mM Tris-HCl, 150 mM NaCl, 0.1% Tween 20, pH 7.6) and blocked with 2% Bovine Serum Albumin-Tris Buffered Saline Tween 20 (BSA-TBST) for one hour at room temperature on a shaker platform. Subsequently, the membrane was incubated with respective primary antibodies overnight at 4° C. diluted in 2% BSA-TBST (Table 2 for additional information). The following day, the membrane was washed three times for 5 min with TBST. An appropriate HRP conjugated rabbit/mouse secondary antibody (Promega) was diluted 1:10000 in 2% BSA-TST and incubated with the membrane for 1 h shaking at room temperature. Finally, the membrane was washed as above and exposed to chemiluminescent reagent (Santa Cruz, Biotechnology Inc.) for 5 min. Stripping/reproving steps were used when necessary. Respective membrane bound protein was then visualized by Chemiluminescence (ChemiDoc Imaging System, Bio-Rad). Bands were quantified by densitometric analysis using ImageJ software (Rasband, WS, ImageJ, US National Institutes of Health, Bethesda, Md., USA). Normalization was performed using a reference protein of the same membrane, the α-Adaptin. The results were expressed as the protein/α-Adaptin ratio or phosphorylated/total protein ratio and normalized to the control group (Y axis represents ‘fold mean of the control values’).
All data are expressed as mean±SEM. Statistical analysis was undertaken for studies where each group size was of, at least, n=5. […]

In the case of `OC1C(O)C(O)C(O)C(O)C1O` [DCI, (1R,2R,3S,4S,5S,6S)-cyclohexane-1,2,3,4,5,6-hexol], the “circulating plasma Ghrelin concentration” value in test [1] is recorded as “enhances”. Besides, the “quantity of phospho-tau (AT8: Ser202, Thr205) compared with vehicle group” value in test [2] (FIG. 7A.1) is recorded as “dropped to more than half”. The “relative protein levels of total tau compared with vehicle group” value in test [2] (FIG. 7A.2) is “rise”. The “GSK-3β serine-9 phosphorylation” value in test [3] (FIG. 9A.1) is on record as “no effect”. In test [3] (FIG. 9A.2), the “GSK-3β tyrosine-216 phosphorylation” value is “no effect”. Also, in test [3] (FIG. 9A.3), the “GSK-3β kinase activity (Ser9/Tyr216)” value is “neither enhance nor inhibition”.

These data come from US20220313620A1, “COMPOSITION FOR PREVENTING AND TREATING TAUOPATHIES” (SERVICIO ANDALUZ DE SALUD, priority 2019, published 2022).
